Measured values as given in patent publication US8986696B2, “Trans-capsular administration of p38 map kinase inhibitors into orthopedic joints” (DePuy Mitek, Inc., priority 2007, dated 2015).

What was measured:
[1] = system: rabbit anterior cruciate ligament transection (ACLT) model of osteoarthritis; assay: ACLT model pilot study, JNJ 3026582 (Example VI); format: in vivo
Method: (§1) New Zealand white rabbits (male, six to eight pounds) were anesthetized with ketamine (17 mg/kg) and xylazine (2.5 mg/kg). Supplementation was given during surgery, if needed, with an additional intramuscular injection of ketamine (35 mg/kg) and xylazine (5 mg/kg). The animals were given buprenorphine (0.01-0.05 mg/kg) for analgesia via a subcutaneous injection. The buprenorphine was administered every twelve hours for seventy-two hours. After induction of anesthesia, the right leg was clipped free of hair using electric animal clippers. The area around the site of surgery was scrubbed with chlorhexidine diacetate, rinsed with alcohol, dried, and painted with an aqueous iodophor solution of 1% available iodine and surgery was prepared using aseptic technique. In the right limb of each animal, the anterior cruciate ligament (ACL) was transected. A medial parapatellar incision was made and the patella was dislocated. The knee was flexed and the ACL visualized. A scalpel blade was positioned behind the ACL and brought anteriorly, thereby cutting the ACL while protecting the posterior cruciate ligament. The patella was returned to the normal anatomic position. The wound was closed in layers.
(§2) Following surgery, the animals were left untreated for six weeks. After six weeks, a series of five injections of the test compound were injected intra-articularly once weekly.
(§3) The animals were euthanized six weeks after initiation with an intravenous injection of pentobarbital (60 mg/kg). […] Immediately following euthanasia, gross observations of the knee joints were made and any abnormality was recorded. The joints were analyzed for disease state in the trochlear groove, the femoral condyles and the tibial plateau. Pathological assessments were performed on the sectioned tissue. Condylar structure, cellularity, presence of GAG and presence of cartilage were evaluated.
Sterile formulations of JNJ 3026582 (RWJ 67657) were prepared by gamma irradiation (1.5 mRAD) on dry ice. DMSO was sterile filtered and the remaining formulations were prepared aseptically. Specifically, 11.5 mg of JNJ 3026582 (RWJ 67657) was dissolved in 4 mL DMSO and the solution was thoroughly mixed with 5 mL of ARTHREASE® (Lot: 11840812) (Biotechnology General (Israel) Ltd.). The final concentration of JNJ 3026582 (RWJ 67657) in the formulation was 1.3 μg/μL and was considered the high dose. The mid dose was made by a 1:10 dilution of the high dose. The low dose was created in the same fashion as the mid dose i.e., by a 1:10 dilution of the mid dose.
A total of four rabbits (n=4) underwent ACLT of the right limb according to the ACLT model described above.
As discussed above, each formulation was injected once per week for five weeks. 160 μI was injected each time via a 26G (gauge) needle. The vehicle for the formulation was ARTHREASE® (Bio-Technology General (Israel) Ltd.).
(§4) At the time of sacrifice, the following parameters were evaluated grossly (the scale follows in parenthesis):
Each parameter was given a score. The combination of all parameters gave a Total Score. A higher score indicates more damage to the joint. The most clinically relevant parameters are discussed in detail below.

[2] = system: rabbit anterior cruciate ligament transection (ACLT) model of osteoarthritis; assay: ACLT model, p38 MAP kinase inhibitors (Example VII); format: in vivo; design: key to Clinical Scoring - Total Score, Mean / Clinical Scoring - Trochlear Groove Effects, Mean / Clinical Scoring - All Tibial Plateau Effects, Mean / Clinical Scoring - All Cartilage Effects, Mean / Clinical Scoring - All Condylar Effects, Mean: gross joint damage score; higher = more damage; settings: for All Condylar Effects: at the low dose; for Total Score / All Cartilage Effects: both doses; for All Cartilage Effects: compared to the non-injected control group; for lateral femoral condyle surface erosion: high and low dose
Method: as §1, §2, §3
Sterile formulations of the test compounds were prepared by gamma irradiating (15 kGy) them on dry ice. […] All formulations were prepared in an aseptic manner by dispersing the drug into ARTHREASE®. […] The drug was delivered in a volume of 160 μL at a concentration of […]. The low dose was made by diluting with ARTHREASE® to the final concentration.
Ninety-six (96) rabbits underwent ACLT on the right knee (n=ten per group) according to the ACLT model. Anesthesia, analgesia, surgical preparation, surgery, intra-articular injections, and euthanasia were conducted according to the ACLT model.
as §4
Each parameter was given a score. The combination of all parameters gave a Total Score. A higher score indicates more damage to the joint. […] Individual results for each parameter assessed were tabulated. Data for the individual scores is not shown.

## OCCC#Cc1nc(-c2ccc(F)cc2)c(-c2ccncc2)n1CCCc1ccccc1 [JNJ 3026582 (RWJ 67657), 4-[4-(4-fluorophenyl)-1-(3-phenylpropyl)-5-(4-pyridinyl)-1H-imidazol-2-yl]-3-butyn-1-ol]
[1]; High 50 μg/kg
  Appearance of Meniscus Lateral, mean score: 2.00
  Appearance of Meniscus Medial, mean score: 2.25
  Appearance of Patella, mean score: 1.25
  Femoral Condyle Presence of Clefts, mean score: 0
  Tibial Plateau (Lateral) # of Osteophytes, mean score: 2.00
  Tibial Plateau (Lateral) Depth of Erosion, mean score: 2.06
  Tibial Plateau (Lateral) Presence of Clefts, mean score: 0
  Tibial Plateau (Lateral) Surface Area Erosion, mean score: 2.50
  Tibial Plateau (Medial) # of Osteophytes, mean score: 1.63
  Tibial Plateau (Medial) Depth of Erosion, mean score: 1.94
  Tibial Plateau (Medial) Presence of Clefts, mean score: 0
  Tibial Plateau (Medial) Surface Area Erosion, mean score: 2.50
  Trochlear Groove # of Osteophytes, mean score: 3.00
  Trochlear Groove Erosion of Cartilage, mean score: 1.25
  Trochlear Groove Osteophyte Size, mean score: 3.00
  Trochlear Groove Thickening, mean score: 0.25
[1]; Low 0.5 μg/kg
  Appearance of Meniscus Lateral, mean score: 1.25
  Appearance of Meniscus Medial, mean score: 1.25
  Appearance of Patella, mean score: 0.50
  Femoral Condyle Presence of Clefts, mean score: 0
  Tibial Plateau (Lateral) # of Osteophytes, mean score: 1.75
  Tibial Plateau (Lateral) Depth of Erosion, mean score: 2.13
  Tibial Plateau (Lateral) Presence of Clefts, mean score: 0
  Tibial Plateau (Lateral) Surface Area Erosion, mean score: 2.00
  Tibial Plateau (Medial) # of Osteophytes, mean score: 1.50
  Tibial Plateau (Medial) Depth of Erosion, mean score: 0.50
  Tibial Plateau (Medial) Presence of Clefts, mean score: 0
  Tibial Plateau (Medial) Surface Area Erosion, mean score: 0.25
  Trochlear Groove # of Osteophytes, mean score: 3.00
  Trochlear Groove Erosion of Cartilage, mean score: 1.00
  Trochlear Groove Osteophyte Size, mean score: 3.00
  Trochlear Groove Thickening, mean score: 0.50
[1]; Mid 5 μg/kg
  Appearance of Meniscus Lateral, mean score: 1.00
  Appearance of Meniscus Medial, mean score: 2.5
  Appearance of Patella, mean score: 1.38
  Femoral Condyle Presence of Clefts, mean score: 0
  Tibial Plateau (Lateral) # of Osteophytes, mean score: 2.25
  Tibial Plateau (Lateral) Depth of Erosion, mean score: 0.88
  Tibial Plateau (Lateral) Presence of Clefts, mean score: 0
  Tibial Plateau (Lateral) Surface Area Erosion, mean score: 2.25
  Tibial Plateau (Medial) # of Osteophytes, mean score: 2.00
  Tibial Plateau (Medial) Depth of Erosion, mean score: 1.13
  Tibial Plateau (Medial) Presence of Clefts, mean score: 0
  Tibial Plateau (Medial) Surface Area Erosion, mean score: 2.00
  Trochlear Groove # of Osteophytes, mean score: 3.00
  Trochlear Groove Erosion of Cartilage, mean score: 1.63
  Trochlear Groove Osteophyte Size, mean score: 3.00
  Trochlear Groove Thickening, mean score: 0.75
[1]; high dose 50 μg/kg
  All Cartilage Effects (0-38), average score: 19.19
  All Condylar Effects (0-18), average score: 8.69
  All Meniscal Effects (0-6), average score: 4.25
  Total Score (0-59), average: 34.31
  lateral femoral condyle % surface area erosion, average score: 2.5
  medial femoral condyle % surface area erosion, average score: 2.25
[1]; low dose 0.5 μg/kg
  All Cartilage Effects (0-38), average score: 12.75
  All Condylar Effects (0-18), average score: 6.38
  All Meniscal Effects (0-6), average score: 2.50
  Total Score (0-59), average: 25.00
  lateral femoral condyle % surface area erosion, average score: 1.23
  medial femoral condyle % surface area erosion, average score: 1.5
[1]; mid dose 5 μg/kg
  All Cartilage Effects (0-38), average score: 14.50
  All Condylar Effects (0-18), average score: 5.88
  All Meniscal Effects (0-6), average score: 3.50
  Total Score (0-59), average: 29.63
  lateral femoral condyle % surface area erosion, average score: 0.75
  medial femoral condyle % surface area erosion, average score: 1.63
[2]
  All Condylar Effects: no effect
  Total Score: Neither JNJ 3026582 (RWJ 67657) nor SCIO-282 (SD 282) had an effect
  All Cartilage Effects: no efficacy
  lateral femoral condyle surface erosion: no effect
[2]; high dose
  Clinical Scoring - All Cartilage Effects, Mean: 9.75
  Clinical Scoring - All Condylar Effects, Mean: 6.25
  Clinical Scoring - All Tibial Plateau Effects, Mean: 2.25
  Clinical Scoring - Total Score, Mean: 16.58
  Clinical Scoring - Trochlear Groove Effects, Mean: 7.92
[2]; low dose
  Clinical Scoring - All Cartilage Effects, Mean: 7.58
  Clinical Scoring - All Condylar Effects, Mean: 4.71
  Clinical Scoring - All Tibial Plateau Effects, Mean: 1.63
  Clinical Scoring - Total Score, Mean: 14.17
  Clinical Scoring - Trochlear Groove Effects, Mean: 7.75

## CC(=O)N1CCN(c2c(-c3ccncc3)c(-c3ccc(F)cc3)c(C#N)n2C)CC1 [JNJ 17089540 (RWJ 669307)]
[2]
  All Condylar Effects: decrease in overall clinical score
  Total Score: trended downward
  All Cartilage Effects: reduction in scores
  lateral femoral condyle surface erosion: efficacious in reducing the clinical score
[2]; high dose
  Clinical Scoring - All Cartilage Effects, Mean: 6.21
  Clinical Scoring - All Condylar Effects, Mean: 3.75
  Clinical Scoring - All Tibial Plateau Effects, Mean: 2.38
  Clinical Scoring - Total Score, Mean: 12.46
  Clinical Scoring - Trochlear Groove Effects, Mean: 6.25
[2]; low dose
  Clinical Scoring - All Cartilage Effects, Mean: 5
  Clinical Scoring - All Condylar Effects, Mean: 2.68
  Clinical Scoring - All Tibial Plateau Effects, Mean: 1.95
  Clinical Scoring - Total Score, Mean: 10.41
  Clinical Scoring - Trochlear Groove Effects, Mean: 5.55
